Patent US11541041B1, “Compounds that interact with the Ras superfamily for the treatment of cancers, inflammatory diseases, Rasopathies, and fibrotic disease” (Shy Therapeutics LLC, priority 2017, dated 2023)
Where two headings read alike, the source gives them in different places. One block for each compound: values may come before it.

Assays:
TNFα = assay: Mouse TNF alpha quantification assay (LPS-stimulated RAW 264.7, ELISA); type: cell-based; conditions: RAW 264.7 murine leukemia virus transformed macrophage cell lines, LPS stimulation; for inhibition at 30 µM: Mus musculus, RAW264.7, 30 μM, read-out: TNF-α % Inhibition at 30 μM
Protocol: (§1) Cell lines: Abelson murine leukemia virus transformed macrophage cell line RAW 264.7 was purchased from ATCC and grown in complete DMEM-High Glucose medium supplemented with penicillin (100 U/mL), streptomycin (100 μg/mL), and 10% heat-inactivated FBS at 37° C. in a humidified incubator with 5% CO2.
(§2) Method: Cells were plated at 40000 cells/well density in a 96-wells plate. After a 3-hour incubation, macrophages were starved with DMEM plus 0.5% FBS o/n. The next day the small molecules to be tested were added to the cells in the final concentration of 30 μM (with 0.3% DMSO) 3 hours prior to LPS stimulation (100 ng/ml). After LPS stimulation cells were incubated at 37° C. for 16h. At the end of the incubation period, culture media were collected and production of LPS-induced TNFα and IL6 cytokine was measured using ELISA detection kits.
(§3) Sandwich ELISA: The ELISA Immunoassays Quantikine Mouse TNF-alpha (catalog number MTA00B) and IL6 (catalog number M6000B) were purchased from R&D Systems Inc., Minneapolis, Minn. These 4.5 hours solid phase ELISAs were used to measure mouse TNFα or IL6 levels in macrophages culture supernatants. Assays were executed according to the manufacturer specifications.

IL6 = assay: Mouse IL6 quantification assay (LPS-stimulated RAW 264.7, ELISA); type: cell-based; conditions: RAW 264.7 murine leukemia virus transformed macrophage cell lines, LPS stimulation; for inhibition at 30 µM: Mus musculus, RAW264.7, 30 μM, read-out: IL-6 % Inhibition at 30 μM
Protocol: as §1, §2, §3

Rac-1 = Rac-1 (Homo sapiens (Human), UniProt P63000); assay: Rac and Rho inhibition assay; type: binding; conditions: read-out: Rac-1 % Inh.
Protocol: (§4) Buffer-I: • 50 mM Tris, pH 7.5 • 150 mM NaCl (optional) • 1 mM MgCl2 • 1 mM DTT. • KRas G12D mutant protein was expressed as a His-tagged protein. Purified His-KRas G12D protein was diluted in buffer-I to a final concentration of 3-10 μg/ml. • 200 μl of the diluted His-KRas G12D protein was added to a nickel coated 96 well plate and incubated overnight at 4° C. • The next day, wells were washed 3× in 200 μl of Buffer-I. • Then 200 μl of Buffer-I were added to each well in the presence of 1% DMSO. • Tested compounds were added to the protein-coated wells at a concentration of 20 μM, and incubated for 3 hours at room temperature. While performing IC50 measurements a serial dilution of all tested concentrations was prepared.
(§5) Then 22 μl of Cy3-GTP or Cy5-GTP was added to each well. The labeled GTP was incubated for 45 min. at room temperature. • Following GTP incubation, wells were washed 3× in Buffer-I, and 200 μl of Buffer-I were added to each well. • Following washes, the amount of bound labeled-GTP was measured with an Eppendorf AF2200 plate reader.
(§6) By substituting KRas G12D mutant protein with either Rac-1 or Rho-A under the assay conditions described in Example 5, Rac-1 and Rho-A inhibition, respectively, were each determined.

[1] = target: KRas G12D/Q61H double mutant (Homo sapiens (Human), UniProt P01116, G12D/Q61H); assay: Ras GTP binding domain inhibition assay
Chain of KRas G12D/Q61H double mutant (P01116-2 other isoform, or with tags, fused parts or gaps G12D/Q61H): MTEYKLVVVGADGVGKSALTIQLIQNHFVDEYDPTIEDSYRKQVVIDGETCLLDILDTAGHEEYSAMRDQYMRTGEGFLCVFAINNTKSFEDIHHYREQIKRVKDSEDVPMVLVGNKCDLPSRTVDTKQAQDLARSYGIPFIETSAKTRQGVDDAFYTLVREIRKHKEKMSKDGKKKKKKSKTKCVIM
Protocol: as §4, §5
By substituting KRas G12D mutant protein with KRas G12C mutant, KRas wild type, KRas Q61H mutant, KRas G12D/Q61H double mutant or KRas G12C/Q61H double mutant under the assay conditions described above, KRas G12C mutant KRas wild type, KRas Q61H mutant, KRas G12D/Q61H double mutant and KRas G12C/Q61H double mutant inhibition, respectively, were each determined.

Rho-A = Rho-A (Homo sapiens (Human), UniProt P61586); assay: Rac and Rho inhibition assay; type: binding; conditions: read-out: Rho-A % Inh.
Chain of Rho-A (P61586 whole entry): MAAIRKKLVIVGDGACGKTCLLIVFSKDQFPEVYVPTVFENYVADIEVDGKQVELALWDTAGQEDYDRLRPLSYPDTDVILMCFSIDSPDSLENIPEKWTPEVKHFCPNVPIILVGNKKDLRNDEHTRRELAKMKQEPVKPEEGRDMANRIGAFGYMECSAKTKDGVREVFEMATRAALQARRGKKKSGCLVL
Protocol: as §4, §5, §6

[2] = 20 μM compound, read-out: % Inhibition at 20 μM, KRas G12D Q61H
[3] = 20 μM, read-out: KRas G12D Q61H % Inh.
[4] = at 20 μM, read-out: KRas G12D Q61H % Inh.

Compound: COCC(C)Nc1nc(-c2ccccc2)nc2sc(-c3ccncc3)c(-c3ccccc3)c12 (stereo not shown)
inhibition at 30 µM (TNFα): 26 to 50%
inhibition at 30 µM (IL6): 0%

Compound: Nc1nc(-c2ccccn2)nc2c(C3CCCCC3)csc12
inhibition at 30 µM (TNFα): 0%
inhibition at 30 µM (IL6): 0%

Compound: Oc1nc(-c2ccccn2)nc2c(-c3cncc(C(F)(F)F)c3)csc12
inhibition at 20 µM (Rac-1): 1 to 25%

Compound: CC(C)Cc1csc2c(N)nc(-c3ccccn3)nc12
inhibition at 30 µM (TNFα): 76 to 100%
inhibition at 30 µM (IL6): 76 to 100%

Compound: Cc1ccc(CC(=O)Nc2nnc(-c3ccccn3)[nH]2)cc1
inhibition at 30 µM (IL6): 51 to 75%

inhibition at 20 µM [1, 2]: 25 to 50%
Compound: CN(C(=O)c1ccc(COc2ccccc2F)o1)c1cccs1

inhibition at 20 µM [1, 3]: 51 to 75%
Compound: CCOC(=O)c1ccnc(N2CCC(C)CC2c2ccc(CC)o2)c1[N+](=O)[O-] (stereo not shown)

inhibition at 20 µM [1, 2]: 25 to 50%
Compound: CCOc1ccc(C(F)(F)F)cc1NCc1ncc(C)o1

Compound: Cc1sc2c(O)nc(-c3ccccn3)nc2c1-c1ccccc1
TNF-α % Inhibition at 30 μM (TNFα; 30 μM): A (A = 1-25% inhibition)
IL-6 % Inhibition at 30 μM (IL6; 30 μM): C (C = 51-75% inhibition)

inhibition at 20 µM [1, 2]: 25 to 50%
Compound: C=C(CNc1nc(-c2ccccn2)nc2scc(-c3ccccc3)c12)NC

Compound: COc1cnc(CNC(=O)c2c(C)sc3c(O)nc(-c4ccccn4)nc23)[nH]c1=O
inhibition at 20 µM (Rho-A): 1 to 25%
inhibition at 20 µM (Rac-1): 1 to 25%

inhibition at 20 µM [1, 2]: 25 to 50%
Compound: CCC1=CC2C(=O)NC(c3ccccn3)=NC2S1 (stereo not shown)

Compound: Cc1sc2c(O)nc(-c3ccccn3)nc2c1C(=O)N1CCN(Cc2cccc(O)c2)CC1
inhibition at 20 µM (Rho-A): 76 to 100%
inhibition at 20 µM (Rac-1): 76 to 100%

Compound: CN(C)Cc1ccc(-c2csc3c(O)nc(-c4ccccn4)nc23)cc1F
inhibition at 20 µM (Rho-A): 76 to 100%
inhibition at 20 µM (Rac-1): 76 to 100%

inhibition at 20 µM [1, 2]: 1 to 25%
Compound: CCOC(=O)c1cnc(N(C2CC2)S(=O)(=O)c2ccc(OC)c(C)c2)s1

inhibition at 20 µM [1, 4]: 1 to 25%
inhibition at 20 µM (Rho-A): 76 to 100%
inhibition at 20 µM (Rac-1): 76 to 100%
Compound: COc1ccc(N2CCN(C(=O)c3csc4c(O)cc(-c5ccccn5)cc34)CC2)cc1O

Compound: Cc1cc2nc(-c3ccccn3)nc(O)c2s1 [drawing 3817]
inhibition at 20 µM (Rho-A): 76 to 100%
inhibition at 20 µM (Rac-1): 76 to 100%

Compound: COc1ccc(CCNC(=O)c2csc3nc(-c4ccccn4)nc(N4CCSCC4)c23)cn1 [drawing 2280]
inhibition at 30 µM (TNFα): 0%
inhibition at 30 µM (IL6): 26 to 50%

Compound: Cc1cc2nc(-c3ccccn3)nc(O)c2s1 [drawing 2263]
inhibition at 30 µM (TNFα): 1 to 25%
inhibition at 30 µM (IL6): 1 to 25%

inhibition at 20 µM [1, 4]: 1 to 25%
inhibition at 20 µM (Rho-A): 1 to 25%
inhibition at 20 µM (Rac-1): 1 to 25%
Compound: COCCCCNC(=O)c1csc2nc(-c3ccccn3)nc(O)c12

inhibition at 20 µM [1, 4]: 51 to 75%
inhibition at 20 µM (Rho-A): 76 to 100%
inhibition at 20 µM (Rac-1): 51 to 75%
Compound: CCC1N=C(C)C=C1c1csc2c(O)nc(-c3ccccn3)nc12 (stereo not shown)

inhibition at 20 µM [1, 2]: 25 to 50%
Compound: C=CCc1cc(COC)ccc1OCC(=O)NCc1ccc(OC)cc1

Compound: O=C(c1csc2c(O)nc(-c3ccccn3)nc12)N1CCNC(c2ccc(Cl)cc2)C1 (stereo not shown)
inhibition at 20 µM (Rho-A): 76 to 100%
inhibition at 20 µM (Rac-1): 76 to 100%

inhibition at 20 µM [1, 2]: 25 to 50%
Compound: O=c1[nH]c(-c2cncc(OCC(F)F)c2)nc2cc(F)c(F)cc12

Compound: CC(C)COc1ccc(-c2csc3c(O)nc(-c4ccccn4)nc23)cn1
inhibition at 20 µM (Rac-1): 76 to 100%

inhibition at 20 µM [1, 3]: 51 to 75%
Compound: O=[N+]([O-])c1cc(C(F)(F)F)ccc1Sc1nc2c(c(C(F)(F)F)n1)CCCC2

inhibition at 20 µM [1, 4]: 51 to 75%
inhibition at 20 µM (Rho-A): 76 to 100%
inhibition at 20 µM (Rac-1): 76 to 100%
Compound: O=C(c1csc2c(O)nc(-c3ccccn3)nc12)N1CCN(c2ccc(O)c(O)c2)CC1

Compound: Nc1nc(-c2ccccn2)nc2c(C3CCCC3)csc12
inhibition at 30 µM (TNFα): 26 to 50%
inhibition at 30 µM (IL6): 51 to 75%

Compound: O=C(NCCc1cnc(O)nc1)c1csc2nc(-c3ccccn3)nc(N3CCSCC3)c12 [drawing 2281]
inhibition at 30 µM (TNFα): 0%
inhibition at 30 µM (IL6): 51 to 75%

Compound: Oc1nc(-c2ccccn2)nc2c(-c3cnc4ccccc4c3)csc12
inhibition at 20 µM (Rho-A): 51 to 75%
inhibition at 20 µM (Rac-1): 51 to 75%
